Experimental findings from US11053218B2, “3-(1-oxoisoindolin-2-yl)piperidine-2,6-dione derivatives and uses thereof” (Novartis AG, priority 2017, dated 2021) are described below.

For assay [1], the target named is IKZF1 (Homo sapiens, UniProt Q13422+Q96SW2). Nature of the assay: Prolabel quantification of IKZF1 protein levels in 293GT cells. Type of assay: cell-based. To be noted: Prolabel assay, read-out: IKZF1 EC50.
Assay [2] addresses IKZF2 (Homo sapiens, UniProt Q96SW2+Q9UKS7). Nature of the assay: Prolabel quantification of IKZF2 protein levels in 293GT cells. Type of assay: cell-based.
[3] abbreviates: 24 h, 10 μM, 24 h, 293GT cells; read-out: IKZF2 % protein reduction at 10 μM, 24 h.
[4] abbreviates: Prolabel assay, 293GT cells; read-out: IKZF2 EC50.
Setting [5] is: 10 μM, 24 h, 293GT cells; read-out: IKZF2 % protein reduction at 10 μM, 24 h.

Counter-ions that a name gives are not always drawn. Like-named read-outs stand apart in the source and are kept apart here.

Sequence of IKZF1 (Q13422 whole entry): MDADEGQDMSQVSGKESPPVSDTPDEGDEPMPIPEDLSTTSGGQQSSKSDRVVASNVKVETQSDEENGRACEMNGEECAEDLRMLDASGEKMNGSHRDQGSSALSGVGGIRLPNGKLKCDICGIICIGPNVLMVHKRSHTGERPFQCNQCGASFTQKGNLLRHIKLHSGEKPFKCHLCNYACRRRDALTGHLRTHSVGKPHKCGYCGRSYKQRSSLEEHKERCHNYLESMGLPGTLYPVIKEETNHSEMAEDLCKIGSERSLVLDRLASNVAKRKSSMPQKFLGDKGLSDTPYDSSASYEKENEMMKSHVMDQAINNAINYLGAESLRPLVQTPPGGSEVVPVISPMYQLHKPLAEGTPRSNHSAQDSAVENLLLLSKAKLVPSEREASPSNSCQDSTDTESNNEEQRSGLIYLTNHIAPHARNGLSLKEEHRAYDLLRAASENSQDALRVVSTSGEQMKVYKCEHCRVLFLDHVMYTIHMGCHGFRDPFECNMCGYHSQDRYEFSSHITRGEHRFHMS
Sequence of IKZF1 (Q96SW2 whole entry): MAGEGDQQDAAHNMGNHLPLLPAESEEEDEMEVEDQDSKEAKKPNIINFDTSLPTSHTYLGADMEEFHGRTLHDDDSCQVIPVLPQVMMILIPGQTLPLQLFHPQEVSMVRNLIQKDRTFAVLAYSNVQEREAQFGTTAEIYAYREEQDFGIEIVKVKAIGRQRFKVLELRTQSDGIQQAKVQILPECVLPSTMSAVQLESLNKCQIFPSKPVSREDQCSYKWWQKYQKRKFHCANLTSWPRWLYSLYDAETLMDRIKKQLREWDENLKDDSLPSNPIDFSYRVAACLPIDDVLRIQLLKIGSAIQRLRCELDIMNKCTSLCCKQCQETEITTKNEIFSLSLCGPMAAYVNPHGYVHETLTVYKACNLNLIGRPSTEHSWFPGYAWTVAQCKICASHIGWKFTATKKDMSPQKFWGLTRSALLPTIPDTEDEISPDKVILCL
Sequence of IKZF1 (Q16531 whole entry partner): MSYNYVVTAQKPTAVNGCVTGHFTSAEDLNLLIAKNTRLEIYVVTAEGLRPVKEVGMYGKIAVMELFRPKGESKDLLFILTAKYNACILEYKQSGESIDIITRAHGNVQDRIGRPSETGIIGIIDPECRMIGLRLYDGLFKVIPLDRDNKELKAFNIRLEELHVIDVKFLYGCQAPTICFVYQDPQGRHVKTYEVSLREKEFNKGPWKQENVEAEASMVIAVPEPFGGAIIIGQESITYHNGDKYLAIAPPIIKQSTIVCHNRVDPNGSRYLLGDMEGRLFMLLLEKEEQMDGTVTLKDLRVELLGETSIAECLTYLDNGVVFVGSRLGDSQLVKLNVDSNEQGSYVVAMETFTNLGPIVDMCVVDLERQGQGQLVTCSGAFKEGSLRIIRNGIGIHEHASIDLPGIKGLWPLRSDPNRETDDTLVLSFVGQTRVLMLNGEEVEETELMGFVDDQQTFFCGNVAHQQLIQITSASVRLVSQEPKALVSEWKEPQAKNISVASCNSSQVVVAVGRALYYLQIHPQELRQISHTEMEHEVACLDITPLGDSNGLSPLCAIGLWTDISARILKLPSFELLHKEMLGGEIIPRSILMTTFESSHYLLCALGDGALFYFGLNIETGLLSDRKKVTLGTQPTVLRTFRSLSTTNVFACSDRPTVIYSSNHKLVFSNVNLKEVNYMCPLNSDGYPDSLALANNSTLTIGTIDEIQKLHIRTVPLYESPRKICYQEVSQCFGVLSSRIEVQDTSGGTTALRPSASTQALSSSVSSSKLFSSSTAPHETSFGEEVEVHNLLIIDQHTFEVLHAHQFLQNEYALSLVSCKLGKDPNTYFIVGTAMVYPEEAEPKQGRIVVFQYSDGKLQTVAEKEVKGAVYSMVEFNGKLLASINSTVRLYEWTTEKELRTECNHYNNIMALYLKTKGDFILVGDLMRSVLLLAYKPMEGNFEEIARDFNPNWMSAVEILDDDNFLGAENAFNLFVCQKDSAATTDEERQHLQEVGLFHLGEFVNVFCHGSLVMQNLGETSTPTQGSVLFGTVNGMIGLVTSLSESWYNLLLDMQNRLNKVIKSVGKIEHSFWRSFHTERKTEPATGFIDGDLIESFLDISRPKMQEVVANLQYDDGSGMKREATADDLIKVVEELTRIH
Sequence of IKZF2 (Q9UKS7 whole entry): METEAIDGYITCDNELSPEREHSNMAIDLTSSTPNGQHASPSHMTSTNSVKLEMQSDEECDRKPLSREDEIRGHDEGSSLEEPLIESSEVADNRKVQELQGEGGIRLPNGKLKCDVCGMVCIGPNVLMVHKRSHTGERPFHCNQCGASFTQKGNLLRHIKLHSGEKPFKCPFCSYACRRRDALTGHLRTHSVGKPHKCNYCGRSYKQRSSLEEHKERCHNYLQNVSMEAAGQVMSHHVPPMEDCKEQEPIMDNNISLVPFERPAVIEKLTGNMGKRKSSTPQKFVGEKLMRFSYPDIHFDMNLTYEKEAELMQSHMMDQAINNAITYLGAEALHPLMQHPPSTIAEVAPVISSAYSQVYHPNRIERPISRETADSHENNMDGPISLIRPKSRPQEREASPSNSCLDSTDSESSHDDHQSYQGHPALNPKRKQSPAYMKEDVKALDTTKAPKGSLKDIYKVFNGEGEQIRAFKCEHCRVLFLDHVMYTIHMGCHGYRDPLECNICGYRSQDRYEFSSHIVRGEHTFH
Sequence of IKZF2 (Q96SW2 whole entry): as the sequence (Q96SW2 whole entry) above
Sequence of IKZF2 (Q16531 whole entry partner): as the sequence (Q16531 whole entry partner) above

For `O=C1CCC(N2Cc3cc(C4CCN(Cc5ccc(S(=O)(=O)C(F)F)cc5)CC4)ccc3C2=O)C(=O)N1` (stereo not shown) [Compound I-252, 3-(5-(1-(4-((difluoromethyl)sulfonyl)benzyl)piperidin-4-yl)-1-oxoisoindolin-2-yl)piperidine-2,6-dione], the figures for the DC50 in assay [1] and in assay [2] (setting [4]) were > 30 µM and 0.03 µM, respectively. Further, the inhibition at 10 µM in assay [2] (setting [3]) came out at 75%.
Taken in the same sequence, the figures for `CC(C)(C)c1ccc(C(=O)N2CCC(c3ccc4c(c3)CN(C3CCC(=O)NC3=O)C4=O)CC2)cc1` (stereo not shown) [Compound I-242, 3-(5-(1-(4-(tert-butyl)benzoyl)piperidin-4-yl)-1-oxoisoindolin-2-yl)piperidine-2,6-dione] were > 30 µM, > 30 µM and 5%.
The like results for `CC1CN(Cc2ccccc2)CCC1c1ccc2c(c1)CN(C1CCC(=O)NC1=O)C2=O` (stereo not shown) [Compound I-187, 3-(5-(1-benzyl-3-methylpiperidin-4-yl)-1-oxoisoindolin-2-yl)piperidine-2,6-dione] were, in that order, > 30 µM, 0.067 µM and 50%.
On to `O=C1CCC(N2Cc3cc(C4CCN(Cc5cccc(S(=O)(=O)N6CCOCC6)c5)CC4)ccc3C2=O)C(=O)N1` (stereo not shown) [Compound I-236, 3-(5-(1-(3-(morpholinosulfonyl)benzyl)piperidin-4-yl)-1-oxoisoindolin-2-yl)piperidine-2,6-dione], for which the DC50 in assay [1] is > 25 µM; in assay [2] (setting [4]), 0.003 µM. Also, in assay [2] (setting [3]), the inhibition at 10 µM turned out to be 80%. Besides, the “IKZF2 protein levels as compared to the control (DMSO)” value in assay [2] (Prolabel assay in HEK293GT cells, bar graph) is “decreased”.
As to `O=C1CCC(N2Cc3cc(C4CCN(Cc5ccc6ccccc6c5)CC4)ccc3C2=O)C(=O)N1` (stereo not shown) [Compound I-47, 3-(5-(1-(naphthalen-2-ylmethyl)piperidin-4-yl)-1-oxoisoindolin-2-yl)piperidine-2,6-dione], the DC50 was > 30 µM in assay [1] and 0.008 µM in assay [2] (setting [4]). Moreover, the inhibition at 10 µM in assay [2] (setting [3]) came out at 80%.
Taken in the same sequence, the figures for `O=C1CCC(N2Cc3cc(C4CCN(C(CO)c5ccccc5)CC4)ccc3C2=O)C(=O)N1` (single isomer, unassigned) [Compound I-249] were > 30 µM, 0.85 µM and 40%.
The like results for `O=C1CCC(N2Cc3cc(C4CCN(Cc5ccc6c(c5)NCCS6)CC4)ccc3C2=O)C(=O)N1` (stereo not shown) [Compound I-141, 3-(5-(1-((3,4-dihydro-2H-benzo[b][1,4]thiazin-6-yl)methyl)piperidin-4-yl)-1-oxoisoindolin-2-yl)piperidine-2,6-dione] were, in that order, > 30 µM, 0.009 µM and 80%.
The like results for `CC(C)c1ccc(CN2CCC(c3ccc4c(c3)CN(C3CCC(=O)NC3=O)C4=O)CC2)cc1` (stereo not shown) [Compound I-45, 3-(5-(1-(4-isopropylbenzyl)piperidin-4-yl)-1-oxoisoindolin-2-yl)piperidine-2,6-dione] were, in that order, > 30 µM, 0.008 µM and 80%.
As for `O=C1CCC(N2Cc3cc(C4=CCN(Cc5ccccc5)CC4)ccc3C2=O)C(=O)N1` (stereo not shown) [Compound I-172, 3-(5-(1-benzyl-1,2,3,6-tetrahydropyridin-4-yl)-1-oxoisoindolin-2-yl)piperidine-2,6-dione], the DC50 in assay [1] worked out at 0.25 µM; in assay [2] (setting [4]), 0.103 µM. For the same compound, the inhibition at 10 µM in assay [2] (setting [5]) came to 60%.
Take `O=C1CCC(N2Cc3cc(C4CCN(Cc5ccnn5-c5ccccc5)CC4)ccc3C2=O)C(=O)N1` (stereo not shown) [Compound I-286, 3-(1-oxo-5-(1-((1-phenyl-1H-pyrazol-5-yl)methyl)piperidin-4-yl)isoindolin-2-yl)piperidine-2,6-dione]: the DC50 was > 30 µM in assay [1] and 0.72 µM in assay [2] (setting [4]). In addition, in assay [2] (setting [3]), the inhibition at 10 µM amounted to 40%.
Taken in the same sequence, the figures for `O=C1CCC(N2Cc3cc(C4CCCN(Cc5ccccc5)CC4)ccc3C2=O)C(=O)N1` (single isomer, unassigned) [Compound I-190, 3-(5-(1-benzylazepan-4-yl)-1-oxoisoindolin-2-yl)piperidine-2,6-dione] were > 30 µM, 0.17 µM and 30%.
The like results for `O=C1CCC(N2Cc3cc(C4CCN(Cc5cn[nH]c5)CC4)ccc3C2=O)C(=O)N1` (stereo not shown) [Compound I-116, 3-(5-(1-((1H-pyrazol-4-yl)methyl)piperidin-4-yl)-1-oxoisoindolin-2-yl)piperidine-2,6-dione] were, in that order, > 30 µM, 0.16 µM and 60%.
The like results for `Cn1ncc(CN2CCC(c3ccc4c(c3)CN(C3CCC(=O)NC3=O)C4=O)CC2)c1N` (stereo not shown) [Compound I-124, 3-(5-(1-((5-amino-1-methyl-1H-pyrazol-4-yl)methyl)piperidin-4-yl)-1-oxoisoindolin-2-yl)piperidine-2,6-dione] were, in that order, > 30 µM, 9.8 µM and 40%.
As to `O=C1CCC(N2Cc3cc(C4C[C@H]5CC[C@@H](C4)N5Cc4ccccc4)ccc3C2=O)C(=O)N1` (stereo partly shown) [Compound I-265, 3-(5-(8-benzyl-8-azabicyclo[3.2.1]octan-3-yl)-1-oxoisoindolin-2-yl)piperidine-2,6-dione HC(O)OH salt], the DC50 was > 50 µM in assay [1] and 0.005 µM in assay [2] (setting [4]). The inhibition at 10 µM in assay [2] (setting [3]) came to 70%.
Taken in the same sequence, the figures for `O=C1CCC(N2Cc3cc(C4CCN(Cc5ccccc5C5CC5)CC4)ccc3C2=O)C(=O)N1` (stereo not shown) [Compound I-104, 3-(5-(1-(2-cyclopropylbenzyl)piperidin-4-yl)-1-oxoisoindolin-2-yl)piperidine-2,6-dione] were > 30 µM, 0.005 µM and 60%.
Taken in the same sequence, the figures for `Nc1ncc(CN2CCC(c3ccc4c(c3)CN(C3CCC(=O)NC3=O)C4=O)CC2)cn1` (stereo not shown) [Compound I-122, 3-(5-(1((2-aminopyrimidin-5-yl)methyl)piperidin-4-yl)-1-oxoisoindolin-2-yl)piperidine-2,6-dione] were > 30 µM, 0.076 µM and 70%.
Consider `O=C1CCC(N2Cc3cc(C4CCN(Cc5ccc6cc[nH]c6n5)CC4)ccc3C2=O)C(=O)N1` (stereo not shown) [Compound I-140, 3-(5-(1-((1H-pyrrolo[2,3-b]pyridin-6-yl)methyl)piperidin-4-yl)-1-oxoisoindolin-2-yl)piperidine-2,6-dione], for which the DC50 is > 30 µM in assay [1] and 0.019 µM in assay [2] (setting [4]). In assay [2] (setting [3]), the inhibition at 10 µM came out at 80%.
With `O=C1CCC(N2Cc3cc(C4CCN(Cc5cccc(Cl)c5)CC4)ccc3C2=O)C(=O)N1` (stereo not shown) [Compound I-16, 3-(5-(1-(3-chlorobenzyl)piperidin-4-yl)-1-oxoisoindolin-2-yl)piperidine-2,6-dione], the figures for the DC50 in assay [1] and in assay [2] (setting [4]) were > 30 µM and 0.008 µM, respectively. Further, in assay [2] (setting [3]), the inhibition at 10 µM was 70%.
`O=C1CCC(N2Cc3cc(C4CCN(Cc5ccccc5Cl)CC4)ccc3C2=O)C(=O)N1` (stereo not shown) [Compound I-18, 3-(5-(1-(2-chlorobenzyl)piperidin-4-yl)-1-oxoisoindolin-2-yl)piperidine-2,6-dione]: the values for the DC50 in assay [1] and in assay [2] (setting [4]) were > 30 µM and 0.019 µM, respectively. Also, in assay [2] (setting [3]), the inhibition at 10 µM came out at 65%.
The like results for `O=C1CCC(N2Cc3cc(C4CCN(Cc5cccc(C(=O)O)c5)CC4)ccc3C2=O)C(=O)N1` (stereo not shown) [Compound I-74, 3-((4-(2-(2,6-dioxopiperidin-3-yl)-1-oxoisoindolin-5-yl)piperidin-1-yl)methyl)benzoic acid] were, in that order, > 30 µM, 2.1 µM and 55%.
Taken in the same sequence, the figures for `COC1CCN(c2ccc(CN3CCC(c4ccc5c(c4)CN(C4CCC(=O)NC4=O)C5=O)CC3)cc2)CC1` (stereo not shown) [Compound I-227, 3-(5-(1-(4-(4-methoxypiperidin-1-yl)benzyl)piperidin-4-yl)-1-oxoisoindolin-2-yl)piperidine-2,6-dione] were > 30 µM, 0.004 µM and 60%.
On to `O=C1CCC(N2Cc3cc(C4CCN(CC5CCC5)CC4)ccc3C2=O)C(=O)N1` (stereo not shown) [Compound I-5, 3-(5-(1-(cyclobutylmethyl)piperidin-4-yl)-1-oxoisoindolin-2-yl)piperidine-2,6-dione], for which the DC50 in assay [1] was > 30 µM; in assay [2] (setting [4]), 0.027 µM. Also, the inhibition at 10 µM in assay [2] (setting [3]) was 60%.
Take `O=C1CCC(N2Cc3cc(C4CCN(Cc5ncccn5)CC4)ccc3C2=O)C(=O)N1` (stereo not shown) [Compound I-95, 3-(1-oxo-5-(1-(pyrimidin-2-ylmethyl)piperidin-4-yl)isoindolin-2-yl)piperidine-2,6-dione]: the DC50 was > 30 µM in assay [1] and 0.13 µM in assay [2] (setting [4]). Besides, in assay [2] (setting [3]), the inhibition at 10 µM came to 20%.
The like results for `CC1(C)CN(Cc2ccccc2)CCC1c1ccc2c(c1)CN(C1CCC(=O)NC1=O)C2=O` (stereo not shown) [Compound I-185, 3-(5-(1-benzyl-3,3-dimethylpiperidin-4-yl)-1-oxoisoindolin-2-yl)piperidine-2,6-dione] were, in that order, > 30 µM, > 30 µM and 20%.
Taken in the same sequence, the figures for `O=C1CCC(N2Cc3cc(C4CCN(Cc5ccc(C(F)(F)F)cn5)CC4)ccc3C2=O)C(=O)N1` (stereo not shown) [Compound I-78, 3-(1-oxo-5-(1-((5-(trifluoromethyl)pyridin-2-yl)methyl)piperidin-4-yl)isoindolin-2-yl)piperidine-2,6-dione] were > 30 µM, 0.21 µM and 40%.
For `CCN1CCC(c2ccc3c(c2)CN(C2CCC(=O)NC2=O)C3=O)CC1` (stereo not shown) [Compound I-1, 3-(5-(1-ethylpiperidin-4-yl)-1-oxoisoindolin-2-yl)piperidine-2,6-dione], the DC50 is > 30 µM in assay [1] and 0.067 µM in assay [2] (setting [4]). Moreover, in assay [2] (setting [5]), the inhibition at 10 µM amounted to 60%.
